# Patent US9464084B2, “P2X7 modulators” (Janssen Pharmaceutica NV, priority 2013, dated 2016)
# Assays:
# [1] = target: T1, rat P2X7 (Rattus norvegicus (Rat), UniProt Q64663); experiment: Ca2+ flux (FLIPR) in 1321N1 cells expressing recombinant rat P2X7 channel; format: cell-based; conditions: 250 μM BzATP;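 further: Calcium-4 dye fluorescence change read 180 s after agonist addition, following 30 min cell preincubation with test compound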
# [2] = target: T2, P2X7 (Homo sapiens (Human), UniProt Q99572); experiment: Ca2+ flux (FLIPR) in 1321N1 cells expressing recombinant human P2X7 channel; format: cell-based; conditions: 250 μM BzATP;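 further: Calcium-4 dye-loaded cells exposed to compound for 30 min before agonist addition, fluorescence change read 180 s after agonist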
# [3] = target: T2, P2X7; experiment: P2X7 antagonism in human whole blood (LPS + Bz-ATP induced IL-1β release, ELISA); format: cell-based; conditions: LPS 30 ng/ml, Bz-ATP 1 mM
# Protocol: Human blood was collected using a blood donor program. PBMCs were isolated from blood using a Ficoll density gradient technique. Briefly, blood was laid on Ficoll solution and centrifuged at RT for 20 minutes at 2000 rpm. The buffy layer (between red blood cells and plasma) was carefully collected by aspiration, washed with PBS and centrifuged again at 1500 rpm for 15 minutes. The resulting cell pellet was washed and plated on 96 well-plates for experiments. For the Mouse/Human Whole Blood experiments, 150 μl of either mouse or human blood was platted on 96 well-plates. Lipopolysaccharide (LPS) (30 ng/ml) was added to each well and incubated for 1 hour. Test compounds were then added and incubated for 30 minutes. The P2X7 agonist, 2′(3′)-O-(4-benzoylbenzoyl) adenosine 5′ triphosphate (Bz-ATP) was then added at a final concentration of 0.5 mM (PBMC) or 1 mM (blood). Cells were incubated for an additional 1.5 hours. At that point, supernatant was collected and stored for IL-1β assay using manufacturer's protocol for enzyme-linked immunosorbent assay (ELISA). Data was expressed as percent control, where control is defined as the difference in IL-1β release in LPS+Bz-ATP samples and LPS only samples. Data was plotted as response (% control) versus concentration to generate IC50 values.
# [4] = target: T2, P2X7; experiment: P2X7 antagonism in human PBMCs (LPS + Bz-ATP induced IL-1β release, ELISA); format: cell-based; conditions: LPS 30 ng/ml, Bz-ATP 0.5 mM; for PBMC 10 μM (% control): compound 10 μM; for PBMC 1 μM (% control): compound 1 μM;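 on all read-outs here: PBMCs from donor human blood, with a further 1.5 h incubation of the cells in the assay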
# [5] = target: T2, P2X7; experiment: Radioligand binding, tritiated A-804598, human P2X7-1321N1 cell membranes; conditions: 1 hour at 4° C.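 Further: ki obtained from the binding IC50 after correction for tracer concentration and tracer affinity.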
# Protocol: (§1) On the day of the experiment, cell membrane preparations were made according to standard published methods. […] The assay was terminated by filtration (GF/B filters pre-soaked with 0.3% PEI) and washed with washing buffer (Tris-HCl 50 mM). The IC50 generated in the binding assay was corrected for tracer concentration and affinity of the tracer to derive at the affinity (Ki) of the test compounds.
# [6] = target: T1, rat P2X7; experiment: Radioligand binding, tritiated A-804598, rat P2X7-1321N1 cell membranes; conditions: 1 hour at 4° C.
# Protocol: as §1
# T2 sequence (Q99572 whole entry): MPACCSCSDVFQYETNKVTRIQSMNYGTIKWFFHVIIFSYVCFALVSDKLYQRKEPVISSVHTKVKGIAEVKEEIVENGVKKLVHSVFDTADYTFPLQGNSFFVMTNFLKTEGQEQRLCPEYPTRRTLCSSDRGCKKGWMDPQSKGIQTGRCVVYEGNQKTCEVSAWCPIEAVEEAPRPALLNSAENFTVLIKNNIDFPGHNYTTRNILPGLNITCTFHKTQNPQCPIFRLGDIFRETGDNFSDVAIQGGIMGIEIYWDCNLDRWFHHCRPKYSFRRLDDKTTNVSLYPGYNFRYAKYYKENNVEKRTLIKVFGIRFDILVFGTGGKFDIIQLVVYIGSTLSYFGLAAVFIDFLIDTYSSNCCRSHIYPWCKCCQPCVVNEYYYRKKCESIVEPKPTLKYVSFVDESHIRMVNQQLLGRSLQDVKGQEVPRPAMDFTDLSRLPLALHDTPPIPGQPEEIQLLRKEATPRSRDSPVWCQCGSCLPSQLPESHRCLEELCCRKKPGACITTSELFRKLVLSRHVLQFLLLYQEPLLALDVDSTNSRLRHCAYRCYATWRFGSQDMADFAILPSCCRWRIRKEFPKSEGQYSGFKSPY
# T1 sequence (Q64663 whole entry): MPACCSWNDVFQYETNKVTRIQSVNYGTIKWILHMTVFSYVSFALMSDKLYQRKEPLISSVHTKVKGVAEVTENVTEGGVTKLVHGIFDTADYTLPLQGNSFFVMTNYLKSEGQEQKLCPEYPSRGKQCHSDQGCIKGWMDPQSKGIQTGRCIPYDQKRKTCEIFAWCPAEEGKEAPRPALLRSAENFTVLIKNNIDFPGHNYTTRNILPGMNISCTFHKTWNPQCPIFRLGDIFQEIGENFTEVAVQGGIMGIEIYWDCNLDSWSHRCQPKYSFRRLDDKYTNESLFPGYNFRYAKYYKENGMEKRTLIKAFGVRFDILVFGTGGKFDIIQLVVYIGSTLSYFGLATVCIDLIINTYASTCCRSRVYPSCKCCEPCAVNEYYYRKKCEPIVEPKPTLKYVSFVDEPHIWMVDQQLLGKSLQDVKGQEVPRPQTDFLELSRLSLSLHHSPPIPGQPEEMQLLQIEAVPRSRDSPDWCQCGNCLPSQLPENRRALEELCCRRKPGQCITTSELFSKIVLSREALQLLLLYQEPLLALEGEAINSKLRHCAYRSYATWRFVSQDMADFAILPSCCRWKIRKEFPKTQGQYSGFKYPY
IC50 [1],IC50 [2],IC50 [3],PBMC 10 μM (% control) [4],Ki [5],Ki [6],PBMC 1 μM (% control) [4],SMILES
195 nM,11.5 nM,–,–,81.3 nM,741 nM,7.0 % control,"O=C(c1cccc(C(F)(F)F)c1Cl)N1CCc2c(-c3ccccc3)n[nH]c2C1 [Example 99, (2-Chloro-3-(trifluoromethyl)phenyl)(3-phenyl-4,5-dihydro-1H-pyrazolo[3,4-c]pyridin-6(7H)-yl)methanone]"
51.5 nM,2.9 nM,316 nM,8.3 % control,50.1 nM,–,–,"O=C(c1cccc(C(F)(F)F)c1Cl)N1CCc2c(nnn2-c2cc(F)ccn2)C1 [Example 131, (2-Chloro-3-(trifluoromethyl)phenyl)(1-(4-fluoropyridin-2-yl)-6,7-dihydro-1H-[1,2,3]triazolo[4,5-c]pyridin-5(4H)-yl)methanone]"
1330 nM,7.5 nM,501 nM,10.6 % control,12.6 nM,–,–,"O=C(c1cccc(Cl)c1Cl)N1CCc2c(nnn2-c2cnccn2)C1 [Example 70, 5-[(2,3-Dichlorophenyl)carbonyl]-1-pyrazin-2-yl-4,5,6,7-tetrahydro-1H-[1,2,3]triazolo[4,5-c]pyridine]"
6.6 nM,5.4 nM,–,−3.7 % control,14.1 nM,3.1 nM,–,"Cc1ccnc(-n2nnc3c2CCN(C(=O)c2cccc(C(F)(F)F)c2Cl)[C@@H]3C)n1 [Example 235, (4R)-(2-Chloro-3-(trifluoromethyl)phenyl)(4-methyl-1-(4-methylpyrimidin-2-yl)-6,7-dihydro-1H-[1,2,3]triazolo[4,5-c]pyridin-5(4H)-yl)methanone]"
5.4 nM,–,–,−6.0 % control,–,5 nM,–,"C[C@H]1c2nnn(-c3ccn(CCF)n3)c2CCN1C(=O)c1cccc(C(F)(F)F)c1Cl (single isomer, unassigned) [Example 172, (S*)-(2-Chloro-3-(trifluoromethyl)phenyl)(1-(1-(2-fluoroethyl)-1H-pyrazol-3-yl)-4-methyl-6,7-dihydro-1H-[1,2,3]triazolo[4,5-c]pyridin-5(4H)-yl)methanone]"
78.9 nM,3 nM,158 nM,6.5 % control,7.9 nM,–,–,"O=C(c1cccc(Cl)c1Cl)N1CCc2c(nnn2-c2ncccn2)C1 [Example 67, 5-[(2,3-Dichlorophenyl)carbonyl]-1-pyrimidin-2-yl-4,5,6,7-tetrahydro-1H-[1,2,3]triazolo[4,5-c]pyridine]"
10.2 nM,8.9 nM,–,−5.7 % control,20 nM,3.2 nM,–,"C[C@H]1c2nnn(-c3ccn(C)n3)c2CCN1C(=O)c1cccc(C(F)(F)F)c1Cl (single isomer, unassigned) [Example 170, (S*)-(2-Chloro-3-(trifluoromethyl)phenyl)(4-methyl-1-(1-methyl-1H-pyrazol-3-yl)-6,7-dihydro-1H-[1,2,3]triazolo[4,5-c]pyridin-5(4H)-yl)methanone]"
527 nM,378 nM,–,10.2 % control,501 nM,–,–,"O=C(c1cccc(C(F)(F)F)c1F)N1CCc2c(ncn2-c2ccn[nH]2)C1 [Example 59, 5-{[2-Fluoro-3-(trifluoromethyl)phenyl]carbonyl}-1-(1H-pyrazol-5-yl)-4,5,6,7-tetrahydro-1H-imidazo[4,5-c]pyridine]"
83.2 nM,7.6 nM,–,−2.1 % control,18.2 nM,–,–,"CC1c2nnn(-c3cnccn3)c2CCN1C(=O)c1cccc(C(F)(F)F)c1F (centres unmarked) [Example 273, (2-fluoro-3-(trifluoromethyl)phenyl)(4-methyl-1-(pyrazin-2-yl)-6,7-dihydro-1H-[1,2,3]triazolo[4,5-c]pyridin-5(4H)-yl)methanone]"
34.2 nM,35 nM,–,–,91.2 nM,–,2.9 % control,"CCOC(=O)C1c2ncn(-c3ccccn3)c2CCN1C(=O)c1cccc(C(F)(F)F)c1Cl (centres unmarked) [Example 24, Ethyl 5-(2-chloro-3-(trifluoromethyl)benzoyl)-1-(pyridin-2-yl)-4,5,6,7-tetrahydro-1H-imidazo[4,5-c]pyridine-4-carboxylate]"
316 nM,316 nM,–,–,316 nM,–,31.6 % control,"O=C(C1c2ncn(-c3ccccn3)c2CCN1C(=O)c1cccc(C(F)(F)F)c1Cl)N1CCC1 (centres unmarked) [Example 35, 4-(Azetidin-1-ylcarbonyl)-5-{[2-chloro-3-(trifluoromethyl)phenyl]carbonyl}-1-pyridin-2-yl-4,5,6,7-tetrahydro-1H-imidazo[4,5-c]pyridine]"
4430 nM,78.3 nM,–,3.8 % control,50.1 nM,–,–,"Cc1c(C(=O)N2CCc3c(nnn3-c3ccccn3)C2)ccc(F)c1F [Example 132, (3,4-Difluoro-2-methylphenyl)(1-(pyridin-2-yl)-6,7-dihydro-1H-[1,2,3]triazolo-[4,5-c]pyridin-5(4H)-yl)methanone]"
3270 nM,111 nM,–,–,74.1 nM,–,9.7 % control,"CCOC(=O)C1c2ncn(-c3ccccn3)c2CCN1C(=O)c1cccc(Cl)c1Cl (centres unmarked) [Example 25, Ethyl 5-(2,3-dichlorobenzoyl)-1-(pyridin-2-yl)-4,5,6,7-tetrahydro-1H-imidazo[4,5-c]pyridine-4-carboxylate]"
4110 nM,198 nM,–,–,43.7 nM,–,8.6 % control,"O=C(c1cccc(C(F)(F)F)c1Cl)N1C=Cc2c(ncn2-c2cnccn2)C1 [Example 54, 5-{[2-Chloro-3-(trifluoromethyl)phenyl]carbonyl}-1-pyrazin-2-yl-4,5-dihydro-1H-imidazo[4,5-c]pyridine]"
169 nM,4.2 nM,–,–,29.5 nM,–,−5.7 % control,"CC1c2nnn(-c3cnccn3)c2C=CN1C(=O)c1cccc(C(F)(F)F)c1Cl (centres unmarked) [Example 72, 5-{[2-Chloro-3-(trifluoromethyl)phenyl]carbonyl}-4-methyl-1-pyrazin-2-yl-4,5-dihydro-1H-[1,2,3]triazolo[4,5-c]pyridine]"
42.3 nM,6.2 nM,–,−1.0 % control,9.1 nM,–,–,"Cc1ccnc(-n2nnc3c2CCN(C(=O)c2cccc(Cl)c2Cl)C3C)n1 (centres unmarked) [Example 225, (2,3-dichlorophenyl)(4-methyl-1-(4-methylpyrimidin-2-yl)-6,7-dihydro-1H-[1,2,3]triazolo[4,5-c]pyridin-5(4H)-yl)methanone]"
> 10000 nM,204 nM,–,14.4 % control,316 nM,–,–,"O=C(c1cccc(C(F)(F)F)c1Cl)N1CCc2c(-c3cncc(F)c3)n[nH]c2C1 [Example 95, 6-{[2-Chloro-3-(trifluoromethyl)phenyl]carbonyl}-3-(5-fluoropyridin-3-yl)-4,5,6,7-tetrahydro-2H-pyrazolo[3,4-c]pyridine]"

SMILES,IC50 [1],IC50 [2],IC50 [3],PBMC 10 μM (% control) [4],Ki [5],Ki [6],PBMC 1 μM (% control) [4]
"O=C(c1cccc(C(F)(F)F)c1F)N1CCc2c(nnn2-c2ncccn2)C1 [Example 66, 5-{[2-Fluoro-3-(trifluoromethyl)phenyl]carbonyl}-1-pyrimidin-2-yl-4,5,6,7-tetrahydro-1H-[1,2,3]triazolo[4,5-c]pyridine]",206 nM,17.4 nM,363 nM,2.7 % control,15.8 nM,–,–
"O=C(c1ccc(F)c(Cl)c1Cl)N1CCc2c(nnn2-c2ccccn2)C1 [Example 130, (2,3-Dichloro-4-fluorophenyl)(1-(pyridin-2-yl)-6,7-dihydro-1H-[1,2,3]triazolo[4,5-c]pyridin-5(4H)-yl)methanone]",154 nM,3.6 nM,501 nM,3.7 % control,50.1 nM,–,–
